# In patent US7524503B2, “Human cytomegalovirus (HCMV) cytotoxic T cell epitopes, polyepitopes compositions comprising same and diagnostic and prophylactic and therapeutic uses therefor” (priority 2001, dated 2009):
# Where “and” joins values, the source holds several entries; their conditions need not be identical. Equal values may be shown once. Read-outs that look alike come from different tables or passages of the source.
# How the values were obtained:
# [1] = tested on: CD4+ T cells; assay: CD4+/CD8+ analysis of 20-mer peptides (intracellular IFN-γ staining or depletion ELISPOT); format: cell-based, human
# Procedure: (§1) To determine whether a particular 20-mer peptide contained either a CD4^+- or CD8^+-restricted epitope, or both, CD4^+/CD8^+ cell depletion ELISPOT assays were performed on PBMC from healthy virus carriers. For any one experiment, three populations of cells were used: a) CD8^+-depleted PBMC, b) CD4^+-depleted PBMC, and c) non-depleted PBMC. These populations of cells were tested concurrently with the same peptides in a conventional ELISPOT assay as described herein above. DYNABEADS M-450 (Dynal, Oslo, Norway) that bound specifically to CD4^+- or CD8^+ cells were used to perform the depletion essentially according to manufacturers instructions. Beads were washed twice in cold PBS supplemented with 2% FCS using magnetic isolation. The requisite number of cells was resuspended in cold PBS supplemented with 2% FCS, added to the beads and then incubated at 4° C., in the dark, for 30 mins (CD8^+ beads) or 60 mins (CD4^+ beads). Populations were depleted of CD4^+ or CD8^+ cells using magnetic separation. After depletion, the non-attached cells were removed and washed once in growth medium, counted and used in conventional ELISPOT assay. Depleted cells were used at 1.7×10^5 cells per well and the non-depleted population was used at the standard 2.5×10^5 cells per well. After the depletion step, each respective cell population was assessed for the purity of CD4^+ and CD8^+ T cells by three-colour flow cytometry. Samples of depleted cell populations were stained with anti-CD3 antibody directly conjugated to fluorescein isothiocyanate (FITC), anti-CD4 antibody conjugated with phycoerythrin (PE) fluorochrome, and anti-CD8 antibody conjugated with Tricolor fluorochrome (described below). The percent of CD3^+/CD4^+ cells present within the CD8^+-depleted population and the percent of CD3^+/CD8^+ cells present within the CD4^+-depleted populations were assessed on FACSCalibur cytometer (Becton Dickinson). The purity of each population was greater than 90% and the results from the ELISPOT assays are expressed as the percentage of CD4+ or CD8^+ cells within the depleted populations that responded toward each peptide by producing IFN-γ.
# (§2) PBMCs were incubated at 37° C. in RPMI+10% FCS with and without 10 μg/ml peptides for 6 hours. Golgiplug™ (Pharmingen, San Diego, Calif., USA) was added to the samples according to manufacturer's instructions during the second hour of incubation and cells activated with 25 ng/ml phorbol 12-myristidate 13-acetate (PMA; Sigma-Aldrich Co, St. Louis Mo.) and 1 μg/ml iomomycin (Sigma) acted as a positive control. Following the incubation, 1×10^6 cells/sample were washed and resuspended in staining buffer consisting of PBS with GolgiPlug™, 3% FCS and sodium azide. Cells were then stained with FITC conjugated anti-CD3-FITC (UCHT1, Immunotech, Marseille, France), and either Tricolor (TRI) conjugated anti-CD4 (S3.5, Caltag, Burlingame, Calif.) or anti-CD8 (3B5, Caltag) for 30 minutes, 4° C. in the dark. The cells were fixed for 20 min at 4° C. with Cytofix/Cytoperm™ (BD Biosciences) and resuspended in Perm/Wash™ permeabilization buffer (BD Biosciences) according to manufacturers protocol. Fixed cells were stained with phycoerythrin (PE) conjugated anti-human IFN-γ (B27, Pharmingen) for 30 min at 4° C. in the dark. As a negative control, cells were stained with appropriate isotype matched control antibodies. Cells were washed twice in permeabilization buffer and resuspended in staining buffer before analysis by three-colour flow cytometry on a FACSCalibur cytometer (BD Biosciences). All data analysis was carried out using FlowJo software (Tree Star, Inc. San Carlos, CA).
# (§3) When using 20-mer peptides to map epitopes by ELISPOT, it is possible that some responses may be MHC class-II restricted, and not necessarily restricted through HLA class I alleles. It was evident throughout this study that some epitopes identified using ELISPOT could not be confirmed using cytotoxicity analysis. […]
# [2] = tested on: CD8+ T cells; assay: as above; format: cell-based, human
# Procedure: as §1, §2, §3
# [3] = tested on: peptide-sensitized autologous PHA blasts or LCLs; format: cell-based, human; design: key to CTL response: Y: Yes; ND: Not detected
# [4] = tested on: PBMC from healthy HCMV seropositive donors; assay: IFN-γ ELISPOT assay; format: cell-based, human; details: peptide 10 μg/ml
# Procedure, shortened: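 IFN-γ-secreting T cells were counted as spots, with no-peptide control wells subtracted and means taken from triplicate wells. These spots came from healthy seropositive carriers' PBMC, 2.5×10^5 per well.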
# [5] = target: T1, HLA A2 (Homo sapiens, UniProt P04439, D140Y/D185E/D98H/E176V/E277Q/G131W/G231S/I119V/I121R/I166T/I218V/L300P/L318F/N151K/N90K/P208A/P217A/Q86G/Q94H/R138H/R169H/T345S); format: cell-based; details: HLA A2 on T2 cells; relative increase in HLA expression vs no peptide at 26° C.
# T1 construct: endogenous in cells; host or cells: T2 cells
# [6] = overlapping 20mer peptides, Table 4
sequence,measurement,setting,value
WPRERAWALKNPHLAYNPFR (human cytomegalovirus pp150 CTL epitope peptide),Responding cells (% CD4),[1]; donor twelve,0.03%
same,Responding cells (% CD8),[2]; donor twelve,0.27%
same,CTL response,[3]; [6],Y
same,ELISPOT Responses (SFC/10^6 PBMC),[4]; donor twelve,RE(83) SFC/10^6 PBMC
QQNQWKEPDVYYTSAFVFPT,Responding cells (% CD4),[1]; donor eight,0%
same,Responding cells (% CD8),[2]; donor eight,0.03%
same,CTL response,[3]; [6],Y
same,ELISPOT Responses (SFC/10^6 PBMC),[4]; donor eight,JW(600) SFC/10^6 PBMC
VLAELVKQI (human cytomegalovirus IE1 CTL epitope peptide),MSE (MHC stabilization efficiency),[5],++ (++ = 100-199%)
same,CTL response,"[3]; predicted epitopes, Table 3",Y
same,ELISPOT Responses (SFC/10^6 PBMC),[4]; donor seven,SB(276) SFC/10^6 PBMC
AVGGAVASV (human cytomegalovirus gB CTL epitope peptide),MSE (MHC stabilization efficiency),[5],− (− = 0-50%)
same,CTL response,"[3]; predicted epitopes, Table 3",Y
same,ELISPOT Responses (SFC/10^6 PBMC),[4]; donor seven,SB(192) SFC/10^6 PBMC
MNGQQIFLEVQAIRETVELR,Responding cells (% CD4),[1]; donor two,0.26%
same,Responding cells (% CD8),[2]; donor two,0.48%
same,CTL response,[3]; [6],Y
same,ELISPOT Responses (SFC/10^6 PBMC),[4]; donor alpha,277 SFC/10^6 PBMC
same,ELISPOT Responses (SFC/10^6 PBMC),[4]; donor two,2985 SFC/10^6 PBMC
TYEKYGNVSVFETSGGLVVF (human cytomegalovirus gB CTL epitope peptide),Responding cells (% CD4),[1]; donor delta,0%
same,Responding cells (% CD8),[2]; donor delta,0.097%
same,CTL response,[3]; [6],Y
same,ELISPOT Responses (SFC/10^6 PBMC),[4]; donor delta,SE(75) SFC/10^6 PBMC
MQLIPDDYSNTHSTRYVTVK (human cytomegalovirus gB CTL epitope peptide),Responding cells (% CD4),[1]; donor four,0.06%
same,Responding cells (% CD8),[2]; donor four,0.03%
same,CTL response,[3]; [6],Y
same,ELISPOT Responses (SFC/10^6 PBMC),[4]; donor four,238 SFC/10^6 PBMC and 302 SFC/10^6 PBMC
same,ELISPOT Responses (SFC/10^6 PBMC),[4]; donor seven,SB(157) SFC/10^6 PBMC
IIKPGKISHIMLDVAFTSHE,Responding cells (% CD4),[1]; donor eight,0.04%
same,Responding cells (% CD4),[1]; donor seven,0.02%
same,Responding cells (% CD8),[2]; donor eight,0.05%
same,Responding cells (% CD8),[2]; donor seven,0.03%
same,CTL response,[3]; [6],Y
same,ELISPOT Responses (SFC/10^6 PBMC),[4]; donor eight,JW(370) SFC/10^6 PBMC
same,ELISPOT Responses (SFC/10^6 PBMC),[4]; donor epsilon,691 SFC/10^6 PBMC
same,ELISPOT Responses (SFC/10^6 PBMC),[4]; donor gamma,177 SFC/10^6 PBMC
same,ELISPOT Responses (SFC/10^6 PBMC),[4]; donor seven,"SB(155), SFC/10^6 PBMC"
IIYTRNHEV (human cytomegalovirus IE2 CTL epitope peptide),MSE (MHC stabilization efficiency),[5],+ (+ = 51-99%)
same,"peptide concentration required for half maximal lysis, fold more than NLVPMVATV and VLEETSVML epitopes respectively",[3],100-500 fold
same,CTL response,"[3]; predicted epitopes, Table 3",Y
same,ELISPOT Responses (SFC/10^6 PBMC),[4]; donor delta,SE(137) SFC/10^6 PBMC
same,ELISPOT Responses (SFC/10^6 PBMC),[4]; donor fifteen,80 SFC/10^6 PBMC
same,ELISPOT Responses (SFC/10^6 PBMC),[4]; donor seven,369 SFC/10^6 PBMC
RQTEKHELLVLVKKAQLNRH,Responding cells (% CD4),[1]; donor fourteen,1.52%
same,Responding cells (% CD8),[2]; donor fourteen,0.57%
same,CTL response,[3]; [6],Y
same,ELISPOT Responses (SFC/10^6 PBMC),[4]; donor fourteen,RK(313) SFC/10^6 PBMC
QYDPVAALFFFDIDLLLQRG,Responding cells (% CD4),[1]; donor seven,0.22%
same,Responding cells (% CD8),[2]; donor seven,0.03%
same,CTL response,[3]; [6],Y
same,ELISPOT Responses (SFC/10^6 PBMC),[4]; donor seven,SB(97) SFC/10^6 PBMC
TAAKAYAVGQFEQPTETPPE (human cytomegalovirus IE2 CTL epitope peptide),Responding cells (% CD4),[1]; donor fourteen,0.2%
same,Responding cells (% CD8),[2]; donor fourteen,0.35%
same,CTL response,[3]; [6],Y
same,ELISPOT Responses (SFC/10^6 PBMC),[4]; donor fourteen,859 SFC/10^6 PBMC
same,ELISPOT Responses (SFC/10^6 PBMC),[4]; donor seven,326 SFC/10^6 PBMC
